Source: patent US20240316084A1, “COMPOSITIONS FOR USE IN PROMOTING ACCELERATED BUTYRATE PRODUCTION IN YOUNG CHILDREN” (SOCIETE DES PRODUITS NESTLE S.A., priority 2020, published 2024)

How the values were obtained:
Format in all cases: cell-based, human
[1] = test system: gut microbiota of an infant; experiment: long term SHIME experiment with infant fecal samples (Example 1); settings: for Actinobacteria population (Abundance), colon model / butyrate concentration in colon model: Infant; for increase of butyrate production: infant gut microbiota, three weeks of treatment
Method: (§1) The model of the human gastrointestinal tract used was the SHIME®. The first two reactors are of the fill-and-draw principle to simulate different steps in food uptake and digestion, with peristaltic pumps adding a defined amount of SHIME® feed (140 mL 3×/day) and pancreatic and bile liquid (60 mL 3×/day), respectively to the stomach and small intestine compartment and emptying the respective reactors after specified intervals. The last three compartments simulate the large intestine. The SHIME® experiment for this study consisted of three stages: • Stabilization period: After inoculation of the colon reactors with a fresh faecal sample, a two-week stabilization period allowed the microbial community to differentiate in the different reactors depending on the local environmental conditions. During this period a basic nutritional matrix was provided to the SHIME to support the optimum diversity of the gut microbiota originally present in the faecal inoculum. • Control period: During this two-week reference period, the standard SHIME® nutrient matrix was further added to the model for a period of 14 days. Analysis of samples in this period allows to determine the baseline microbial community composition and activity in the different reactors, which will be used as a reference for evaluating the treatment effects. • Treatment period: During this three-week period, the SHIME® reactor was operated under nominal conditions, but with a diet supplemented with the 2′FL product on top of the normal composition. The diet supplemented with 2′FL was administered 3 times a day at a concentration of 1% SCFA Production were Measured Three Times Per Week Throughout the Experiment

[2] = test system: gut microbiota of a toddler; experiment: long term SHIME experiment with toddler samples (Example 1); settings: for Actinobacteria population (Abundance), colon model / butyrate concentration in colon model: Toddler; for increase of butyrate production: young child, three weeks of treatment
Method: as §1

gut microbes = experiment: gas production: samples from the proximal colon vessel of the SHIME treated with lactose or 2′-FL in a penicillin tube; settings: for gas production between 6-24 h (rank): 6-24 h timeframe, Lactose versus 2′FL; for gas production at 48 h (gaz pressure): 48 h incubation
Method: Gas production is a measure of fermentative activity by gut microbes. […] Gas production is not monitored in the long-term SHIME® model, given its regular flushing with N2 (to ensure anaerobiosis). Therefore, gas production was evaluated by collecting samples from the proximal colon vessel of the SHIME and treating them with lactose or 2′-FL in a penicillin tube. It was then incubated for 24 h and 48 h. The gas formation was assessed in those tubes.

[3] = test system: gut microbiota of a toddler; experiment: long term SHIME experiment, comparison of different HMOs blends in toddler (Example 2)
Method: The model of the human gastrointestinal tract used was the SHIM ED. The first two reactors are of the fill-and-draw principle to simulate different steps in food uptake and digestion, with peristaltic pumps adding a defined amount of SHIME feed (140 mL 3×/day) and pancreatic and bile liquid (60 mL 3×/day), respectively to the stomach and small intestine compartment and emptying the respective reactors after specified intervals. The last three compartments simulate the large intestine. The SHIME® experiment for this study consisted of three stages: • Stabilization period: After inoculation of the colon reactors with a fresh faecal sample, a two-week stabilization period allowed the microbial community to differentiate in the different reactors depending on the local environmental conditions. During this period a basic nutritional matrix was provided to the SHIME to support the optimum diversity of the gut microbiota originally present in the faecal inoculum. • Control period: During this two-week reference period, the standard SHIME nutrient matrix was further added to the model for a period of 14 days. Analysis of samples in this period allows to determine the baseline microbial community composition and activity in the different reactors, which will be used as a reference for evaluating the treatment effects. • Treatment period: During this three-week period, the SHIME reactor was operated under nominal conditions, but with a diet supplemented with the 2′FL product on top of the normal composition or with the mixtures HMO-3 or HMO-5. The diet supplemented with HMOs administered 3 times a day at a concentration of 1%. In this experiment, also branched SCFA (b-SCFA=sum of isobutyrate, isovalerate and isocaproate) were measured which result from protein degradation and reflect proteolytic activity of the gut microbiota. A significant alterations in those metabolites was shown in fecal extracts from patients with colon cancer compared to controls Ref: Le Gall 2018 (Oncotarget, 2018, Vol. 9, (No. 70), pp: 33278-33289)

[4] = treatment week 1, diet with 1% 2′FL 3 times a day
[5] = treatment week 2, diet with 1% 2′FL 3 times a day
[6] = treatment week 3, diet with 1% 2′FL 3 times a day
[7] = distal colon, treatment week 3, diet with 1% HMOs 3 times a day

Molecule: 2′-fucosyllactose [2′-FL]
- Actinobacteria population (Abundance), colon model ([1]; treatment week 1): 31.8%
- butyrate concentration in colon model [1, 4]: 13.75 mM/m1
- Actinobacteria population (Abundance), colon model ([1]; treatment week 2): 46.3%
- butyrate concentration in colon model [1, 5]: 15.85 mM/m1
- Actinobacteria population (Abundance), colon model ([1]; treatment week 3): 43.5%
- butyrate concentration in colon model [1, 6]: 20.3 mM/m1
- increase in butyrate, onset of effect ([1]; infant fecal samples, over the weeks of treatment): more gradual
- increase of butyrate production ([1]; Distal Colon): 54%
- increase of butyrate production ([1]; Proximal Colon): 81%
- Actinobacteria population (Abundance), colon model ([2]; treatment week 1): 49.9%
- butyrate concentration in colon model [2, 4]: 28.1 mM/m1
- Actinobacteria population (Abundance), colon model ([2]; treatment week 2): 53%
- butyrate concentration in colon model [2, 5]: 30.2 mM/m1
- Actinobacteria population (Abundance), colon model ([2]; treatment week 3): 52.2%
- butyrate concentration in colon model [2, 6]: 30.3 mM/m1
- butyrate concentration in the colon, onset of effect ([2]; toddler samples): immediate increase
- butyrate concentrations, course through the treatment period ([2]; toddler samples): relatively stable
- effect on Actinobacteria phylum mainly composed of Bifidobacteria ([2]; toddlers): immediate effect
- increase of butyrate production ([2]; Distal Colon): 156%
- increase of butyrate production ([2]; Proximal Colon): 192%
- gas production between 6-24 h (rank) (gut microbes): lowest
- gas production at 48 h (gaz pressure) (gut microbes; Infant): 31.8 kPA
- gas production at 48 h (gaz pressure) (gut microbes; Toddler): 49.9 kPA
- gas production over 48 hours as compared to Lactose (gut microbes; both toddler and infant, 48 hours): less gas production
- increase in gas production corresponding to accelerated butyrate production (gut microbes; toddlers): no corresponding increase in gas production
- butyrate production in the colon, onset of effect [3]: immediate increase
- BCFA production in toddler [3, 7]: 3.1 mM
- butyrate production in toddler [3, 7]: 29.5 mM

Molecule: OC[C@H]1O[C@@H](O[C@H]2[C@H](O)[C@@H](O)C(O)O[C@@H]2CO)[C@H](O)[C@@H](O)[C@H]1O (stereo partly shown) [Lactose, reference compound]
- gas production between 6-24 h (rank) (gut microbes): highest
- gas production at 48 h (gaz pressure) (gut microbes; Infant): 4.7 kPA
- gas production at 48 h (gaz pressure) (gut microbes; Toddler): 12.8 kPA
